Measurements from patent publication US7608636B2, “Medicines for treatment and prevention of neurogenic pain” (Hamilton Pharmaceuticals, Inc., priority 2000, dated 2009).

Legend:
[1] = system: ddY male mice; test: von Frey test, administration into spinal subarachnoid space, partial sciatic nerve ligation model; format: in vivo, mouse; conditions: for effect on escape reaction threshold (von Frey): control group subjected only to the dissection, administration into spinal subarachnoid space (10 nmol), compared to physiological saline; for effect on noxious response threshold (von Frey): neuropathic pain model (sciatic nerve bound), administration into spinal subarachnoid space, nefiracetam 1 and 10 nmol, morphine 10 nmol, oxiracetam 10 nmol
Protocol: 42 of ddY male mice having a body weight of 16 to 18 g were used. […] The mice were anesthetized with pentobarbital, and skin of right hind leg of each mouse was dissected so that sciatic nerve was observed. The half of sciatic nerve fibers was bound with a suture for 24 mice among 42 mice, and only the dissection was performed for the remaining 18 mice (a control group). After the dissection site was sutured, the animals were left for 7 days (Xun Ye et al, Jpn. J. Pharmacol. 2000, Malmberg A B and Basbaum A I, Pain 1998). […] The group of mice of which sciatic nerves were bound was divided into 4 groups, and the threshold was measured twice. The average of the values was used as a control value. Then, mice of each group were each administered with 5 μl (1 nmol) of nefiracetam, 5 μl (10 nmol) of nefiracetam, 5 μl (10 nmol) of morphine or 5 μl of physiological saline into spinal subarachnoid space. After the administration, the threshold was repeatedly measured for 60 minutes with intervals of 10 minutes. The group of mice that were subjected only to the dissection was divided into three groups, and a control value was measured in the same manner as described above. Then, mice of each group were each administered with 5 μl (10 nmol) of nefiracetam, 5 μl (10 nmol) of morphine or 5 μl of physiological saline into spinal subarachnoid space, and the threshold was measured in the same manner as described above.
In the same manner as in Example 2, 5 μl (10 nmol) of oxiracetam was administered and the threshold was measured.
In the von Frey test, the escape reactions caused by mechanical noxious stimulus, which was given for a time period of 60 minutes with intervals of 10 minutes, were evaluated as a threshold (g).

[2] = system: male mouse; conditions: p.o.; cited from earlier work
[3] = system: ddY male mice; test: Hargreaves test, diabetic neuropathic pain (streptozotocin mice); format: in vivo, mouse; conditions: mice with diabetes mellitus (streptozotocin); oral administration 3, 10 or 30 mg/kg
Protocol: 36 of ddY male mice having a body weight of 28 to 30 g were used. In the Hargreaves test, the mice were placed on a glass plate, and hind leg footpads of the mice were stimulated with radiant heat (combination type analgesia meter MODEL 336 (IITC INC., U.S.A.)) every 10 minutes. And the latent time until the beginning of an escape reaction was measured. The mice with diabetes mellitus were prepared by administering streptozotocin (200 mg/kg) dissolved in 0.1 N citrate buffer (pH 4.5) to caudal arteries, and the experiment was performed on the 7th day. […] 24 animals among the 36 animals were determined as mice with diabetes mellitus according to the method described above, and the remaining 12 mice were administered with 0.1 N citrate buffer at caudal arteries and used as a comparative control group (control group). The mice with diabetes mellitus were divided into 4 groups, and the threshold was measured twice. […] Then, mice of each group were each orally administered with 3 mg/kg, 10 mg/kg or 30 mg/kg of nefiracetam or physiological saline (10 ml/kg), and the latent time was repeatedly measured for 60 minutes with intervals of 10 minutes. The control group was divided into two groups, and a control value was measured as described above. […]

[4] = system: ddY male mice; test: von Frey test, oral administration of nefiracetam, partial sciatic nerve ligation model; format: in vivo, mouse; conditions: oral administration 3, 10 or 30 mg/kg
Protocol: 36 of ddY male mice having a body weight of 16 to 18 g were used. In the von Frey test, the mice were placed on a mesh, and hind leg footpads of the mice were stimulated with a von Frey filament (digital type von Frey tester MODEL 1601 (IITC INC., U.S.A.)) every 15 minutes, and the threshold values observed at the beginning of an escape reaction were represented in a unit of gram. The mice were anesthetized with pentobarbital, and skin of right hind leg of each mouse was dissected so that sciatic nerve was observed. The half of sciatic nerve fibers was bound with a suture for 24 animals among the 36 animals, and only the dissection was performed for the remaining 12 animals (a sham group). After the dissection site was sutured, experiments were performed on the 7th day (Xun Ye et al, Jpn. J. Pharmacol. 2000, Malmberg A B and Basbaum A I, Pain 1998). […] The group of mice of which sciatic nerves were bound was divided into 4 groups, and the threshold was measured twice. […] Then, mice of each group were each orally administered with 3 mg/kg, 10 mg/kg or 30 mg/kg of nefiracetam or physiological saline (10 ml/kg), and the threshold was repeatedly measured for 90 minutes with intervals of 15 minutes. The mice of the control group (the sham group) that were subjected only to the dissection were divided into two groups, and a control value was measured in the same manner as described above. […]

[5] = system: ddY male mice; test: Peripheral nociception test (bradykinin-induced nociceptive flexion reaction), partial sciatic nerve ligation model; format: in vivo, mouse
Protocol: 17 of ddY male mice having a body weight of 13 to 15 g were used. The mice were anesthetized with pentobarbital, and skin of right hind leg of each mouse was dissected so that sciatic nerve was observed. The half of sciatic nerve fibers was bound with a suture for 9 mice among 17 mice, and only the dissection was performed for the remaining 8 animals (a control group). After the dissection site was sutured, the animals were left for 7 days (Xun Ye et al, Jpn. J. Pharmacol. 2000, Malmberg A B and Basbaum A I, Pain 1998). […] The group of mice of which sciatic nerves were bound was divided into two groups, and mice of one group were each administered with 5 μl (10 nmol) of nefiracetam and mice of the other group were each administered with 5 μl of physiological saline into spinal subarachnoid space. After the administration, the mice were each subcutaneously administered at a right hind leg footpad with physiological saline at 10 minutes and 15 minutes, 2 μl (0.1 fmol) of bradykinin at 20 minutes and 25 minutes, 2 μl (1 fmol) of bradykinin at 30 minutes and 35 minutes, 2 μl (10 fmol) of bradykinin at 40 minutes and 45 minutes, and 2 μl (100 fmol) of bradykinin at 50 minutes and 55 minutes after the administration. […]
In the mouse peripheral nociception test, nociceptive flexion reactions caused by chemical pain stimulus using bradykinin were evaluated. […]

CN1CC[C@]23c4c5ccc(O)c4O[C@H]2[C@@H](O)C=C[C@H]3[C@H]1C5 [morphine, reference compound]
effect on escape reaction threshold (von Frey) [1]: did not give significant effect | effect on noxious response threshold (von Frey) [1]: no significant effect

Cc1cccc(C)c1NC(=O)CN1CCCC1=O [nefiracetam, N-(2,6-dimethylphenyl)-2-(2-oxo-1-pyrrolidinyl)acetamide]
Acute toxicity [2]: 2,005 mg/kg | effect on escape reaction threshold (von Frey) [1]: did not give significant effect | effect on noxious response threshold (von Frey) [1]: analgesic effect in a dose-dependent manner | suppression effect on diabetic neuropathic pain (Hargreaves latent time) [3]: suppression effect | suppressing effect on neuropathic pain by oral administration (von Frey) [4]: suppressing effect on neuropathic pain | effect on the reaction caused by bradykinin administered to footpad ([5]; control group subjected only to the dissection, without nervous disturbance, administered into spinal subarachnoid space, compared to physiological saline): not significant | bradykinin sensitive response (analgesic effect) ([5]; neuropathic pain model (sciatic nerve bound), administration into spinal subarachnoid space, bradykinin 0.1 to 100 fmol): completely suppressed

NC(=O)CN1CC(O)CC1=O (stereo not shown) [oxiracetam, 4-hydroxy-2-oxo-1-pyrrolidineacetamide]
effect on noxious response threshold (von Frey) [1]: analgesic effect substantially equivalent to that of nefiracetam
